# Data as given in patent US20250099466A1 (BRISTOL-MYERS SQUIBB COMPANY, priority 2021, published 2025).
# System: subjects undergoing elective total knee replacement surgery
# Experiment: Phase 2 study of milvexian versus enoxaparin after elective total knee replacement: venous thromboembolism events
# Assay type: in vivo, human
# Settings: for Major VTE % / Major VTE n / Total VTE % / Total VTE RR vs. Enoxaparin / Total VTE n: mITT, Day 14; for Asymptomatic distal DVT % / Asymptomatic distal DVT n / Asymptomatic proximal DVT % / Asymptomatic proximal DVT n / Death n / Distal DVT % / Distal DVT n / Non-fatal PE n / Proximal DVT % / Proximal DVT n / Symptomatic distal DVT n / Symptomatic proximal DVT n / Non-fatal PE % / Symptomatic distal DVT %: through day 14; for incidence of segments with the most severe DVT severity score of 3: subjects with DVT on venography
# From the text: [table] […] The study used a prospective, randomized, open-label, blinded endpoint (PROBE) design. […] The enoxaparin control arm likewise completed its pre-specified randomization of 300 subjects. […] FIG. 1 provides the study design, including number of subjects randomized into each study arm. […] An adaptive design was used to optimize patient recruitment for the dose-response evaluation. The number of dose regimens, the option to implement additional once daily dosing regimens, and the randomization ratio were based on the results of the periodic reviews and interim analysis. […] Randomization was performed postoperatively using a centralized interactive web-based response system and was stratified by geographic region of the study centers. […] Enoxaparin was given subcutaneously at a dose of 40 mg once daily and was started either the evening before or 12 to 24 hours after surgery. […] The primary efficacy outcome was venous thromboembolism, defined as the composite of asymptomatic deep-vein thrombosis (detected by mandatory unilateral venography performed 10 to 14 days after surgery), confirmed symptomatic venous thromboembolism (symptomatic deep-vein thrombosis of the leg or nonfatal pulmonary embolism), or death. […] Factor XI antisense oligonucleotide for prevention of venous thrombosis. N Engl J Med 2015; 372:232-40; Fuji et al., A dose-ranging study evaluating the oral factor Xa inhibitor edoxaban for the prevention of venous thromboembolism in patients undergoing total knee arthroplasty. J Thromb Haemost 2010; 8:2458-68). The major secondary efficacy outcomes were: (a) proximal deep-vein thrombosis (symptomatic or asymptomatic), (b) distal deep-vein thrombosis (symptomatic or asymptomatic) (c) nonfatal pulmonary embolism, and (d) death. An exploratory efficacy outcome was the extent of venous thrombosis on venography, which was assessed by the adjudication committee using predefined categories. […] Statistics in Medicine 2014; 33:1646-61). […] Venograms, assessed by independent blinded adjucators, were used to identify, and to assign DVT severity scores to, subjects with DVT. […] For each evaluated segment, a severity score was assigned depending on the presence and, if present, extension of the clot in the segment of the vein. Severity scores, on a scale of 0-3, were assigned as follows: 0=no clot; 1=less than ⅓; 2=greater than or equal to ⅓ but less than ⅔; and 3=greater than ⅔ the length of the vein segment.
# [1] = milvexian all regimens combined
# [2] = milvexian combined BID regimens
compound,measurement,setting,value
"C[C@@H]1CCC[C@H](n2cnc(-c3cc(Cl)ccc3-n3cc(Cl)nn3)cc2=O)c2cc(ccn2)-c2c(cnn2C(F)F)NC1=O [milvexian, (5R,9S)-9-(4-(5-chloro-2-(4-chloro-1H-1,2,3-triazol-1-yl)phenyl)-6-oxopyrimidin-1(6H)-yl)-21-(difluoromethyl)-5-methyl-21H-3-aza-1(4,2)-pyridina-2(5,4)-pyrazolacyclononaphan-4-one]",Major VTE %,milvexian 25 mg BID,0.8%
same,Major VTE n,milvexian 25 mg BID,1 n
same,Total VTE %,milvexian 25 mg BID,21.0%
same,Total VTE RR vs. Enoxaparin,milvexian 25 mg BID,0.97
same,Total VTE n,milvexian 25 mg BID,27 n
same,Major VTE %,"milvexian 25 mg BID, listed as Milvexian",(0.8%)
same,Asymptomatic distal DVT %,milvexian 25 mg BID,20.2%
same,Asymptomatic distal DVT n,milvexian 25 mg BID,26 n
same,Asymptomatic proximal DVT %,milvexian 25 mg BID,0.8%
same,Asymptomatic proximal DVT n,milvexian 25 mg BID,1 n
same,Death n,milvexian 25 mg BID,0 n
same,Distal DVT %,milvexian 25 mg BID,20.2%
same,Distal DVT n,milvexian 25 mg BID,26 n
same,Non-fatal PE n,milvexian 25 mg BID,0 n
same,Proximal DVT %,milvexian 25 mg BID,0.8%
same,Proximal DVT n,milvexian 25 mg BID,1 n
same,Symptomatic distal DVT n,milvexian 25 mg BID,0 n
same,Symptomatic proximal DVT n,milvexian 25 mg BID,0 n
same,Major VTE n,milvexian 25 mg once daily,0 n
same,Total VTE %,milvexian 25 mg once daily,(25.0%)
same,Total VTE RR vs. Enoxaparin,milvexian 25 mg once daily,1.00
same,Total VTE n,milvexian 25 mg once daily,7 n
same,Major VTE %,milvexian 50 mg BID,0.8%
same,Major VTE n,milvexian 50 mg BID,1 n
same,Total VTE %,milvexian 50 mg BID,11.3%
same,Total VTE RR vs. Enoxaparin,milvexian 50 mg BID,0.53
same,Total VTE n,milvexian 50 mg BID,14 n
same,Major VTE %,"milvexian 50 mg BID, listed as Milvexian",(0.8%)
same,incidence of segments with the most severe DVT severity score of 3,milvexian 50 mg BID,0%
same,Asymptomatic distal DVT %,milvexian 50 mg BID,10.5%
same,Asymptomatic distal DVT n,milvexian 50 mg BID,13 n
same,Asymptomatic proximal DVT n,milvexian 50 mg BID,0 n
same,Death n,milvexian 50 mg BID,0 n
same,Distal DVT %,milvexian 50 mg BID,10.5%
same,Distal DVT n,milvexian 50 mg BID,13 n
same,Non-fatal PE %,milvexian 50 mg BID,0.8%
same,Non-fatal PE n,milvexian 50 mg BID,1 n
same,Proximal DVT n,milvexian 50 mg BID,0 n
same,Symptomatic distal DVT n,milvexian 50 mg BID,0 n
same,Symptomatic proximal DVT n,milvexian 50 mg BID,0 n
same,Major VTE %,milvexian 50 mg once daily,1.6%
same,Major VTE n,milvexian 50 mg once daily,2 n
same,Total VTE %,milvexian 50 mg once daily,(23.6%)
same,Total VTE RR vs. Enoxaparin,milvexian 50 mg once daily,1.15
same,Total VTE n,milvexian 50 mg once daily,30 n
same,Major VTE %,"milvexian 50 mg once daily, listed as Milvexian",(1.6%)
same,Major VTE %,milvexian 100 mg BID,1.5%
same,Major VTE n,milvexian 100 mg BID,2 n
same,Total VTE %,milvexian 100 mg BID,9.0%
same,Total VTE RR vs. Enoxaparin,milvexian 100 mg BID,0.42
same,Total VTE n,milvexian 100 mg BID,12 n
same,Major VTE %,"milvexian 100 mg BID, listed as Milvexian",(1.5%)
same,incidence of segments with the most severe DVT severity score of 3,milvexian 100 mg BID,1.52%
same,Asymptomatic distal DVT %,milvexian 100 mg BID,7.5%
same,Asymptomatic distal DVT n,milvexian 100 mg BID,10 n
same,Asymptomatic proximal DVT %,milvexian 100 mg BID,0.7%
same,Asymptomatic proximal DVT n,milvexian 100 mg BID,1 n
same,Death n,milvexian 100 mg BID,0 n
same,Distal DVT %,milvexian 100 mg BID,7.5%
same,Distal DVT n,milvexian 100 mg BID,10 n
same,Non-fatal PE %,milvexian 100 mg BID,0.7%
same,Non-fatal PE n,milvexian 100 mg BID,1 n
same,Proximal DVT %,milvexian 100 mg BID,0.7%
same,Proximal DVT n,milvexian 100 mg BID,1 n
same,Symptomatic distal DVT %,milvexian 100 mg BID,0.7%
same,Symptomatic distal DVT n,milvexian 100 mg BID,1 n
same,Symptomatic proximal DVT n,milvexian 100 mg BID,0 n
same,Major VTE n,milvexian 200 mg BID,0 n
same,Total VTE %,milvexian 200 mg BID,7.6%
same,Total VTE RR vs. Enoxaparin,milvexian 200 mg BID,0.37
same,Total VTE n,milvexian 200 mg BID,10 n
same,incidence of segments with the most severe DVT severity score of 3,milvexian 200 mg BID,2.73%
same,Asymptomatic distal DVT %,milvexian 200 mg BID,7.6%
same,Asymptomatic distal DVT n,milvexian 200 mg BID,10 n
same,Asymptomatic proximal DVT n,milvexian 200 mg BID,0 n
same,Death n,milvexian 200 mg BID,0 n
same,Distal DVT %,milvexian 200 mg BID,7.6%
same,Distal DVT n,milvexian 200 mg BID,10 n
same,Non-fatal PE n,milvexian 200 mg BID,0 n
same,Proximal DVT n,milvexian 200 mg BID,0 n
same,Symptomatic distal DVT n,milvexian 200 mg BID,0 n
same,Symptomatic proximal DVT n,milvexian 200 mg BID,0 n
same,Major VTE n,milvexian 200 mg once daily,0 n
same,Total VTE %,milvexian 200 mg once daily,(6.5%)
same,Total VTE RR vs. Enoxaparin,milvexian 200 mg once daily,0.30
same,Total VTE n,milvexian 200 mg once daily,8 n
same,incidence of segments with the most severe DVT severity score of 3,milvexian 200 mg once daily,0%
same,Total VTE %,[1],13.6%
same,Total VTE n,[1],108 n
same,reduction of total VTE compared to enoxaparin,milvexian at total daily doses of ≥200 mg,> 50%
same,Total VTE %,[2],12.2%
same,Total VTE n,[2],63 n
same,Asymptomatic distal DVT %,[2],11.4%
same,Asymptomatic distal DVT n,[2],59 n
same,Asymptomatic proximal DVT %,[2],0.4%
same,Asymptomatic proximal DVT n,[2],2 n
same,Death n,[2],0 n
same,Distal DVT %,[2],11.4%
same,Distal DVT n,[2],59 n
same,Non-fatal PE %,[2],0.4%
same,Non-fatal PE n,[2],2 n
same,Proximal DVT %,[2],0.4%
same,Proximal DVT n,[2],2 n
same,Symptomatic distal DVT %,[2],0.2%
same,Symptomatic distal DVT n,[2],1 n
same,Symptomatic proximal DVT n,[2],0 n
